Results as given in ChEMBL document CHEMBL4665838, “Identification of a novel orally bioavailable NLRP3 inflammasome inhibitor” (Bioorg Med Chem Lett, 2020).
Activity calls are given as the source filed them. The rule behind the calls is not given here.

Experiments:
[1] = target: T1, NACHT, LRR and PYD domains-containing protein 3 (Homo sapiens, UniProt Q96P20); test: Inhibition of NLRP3 in human THP1 cells assessed as inhibition of IL-1beta production; type: cell-based, THP-1
[2] = target: T1, NACHT, LRR and PYD domains-containing protein 3; test: Inhibition of NLRP3 in human THP1 cells assessed as inhibition of IL-1beta production at 1 uM relative to control; type: cell-based; conditions: THP-1
[3] = target: T2, Interferon-inducible protein AIM2 (Homo sapiens) (UniProt O14862); test: Inhibition of AIM2 inflammasome (unknown origin)
T2 sequence (whole entry): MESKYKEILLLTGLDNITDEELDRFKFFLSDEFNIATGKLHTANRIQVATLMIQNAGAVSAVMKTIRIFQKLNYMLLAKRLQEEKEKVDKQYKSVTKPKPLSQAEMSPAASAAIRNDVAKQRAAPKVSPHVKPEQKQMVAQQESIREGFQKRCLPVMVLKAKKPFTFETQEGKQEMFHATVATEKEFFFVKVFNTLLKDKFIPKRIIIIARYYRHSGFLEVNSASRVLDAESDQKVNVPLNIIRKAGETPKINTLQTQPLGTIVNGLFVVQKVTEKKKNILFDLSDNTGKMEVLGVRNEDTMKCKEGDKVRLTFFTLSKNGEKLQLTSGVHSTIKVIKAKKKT

[4] = AUC (0 to t) in C57BL/6 mouse at 3 mg/kg, po; type: ADME, organism-based; set-up: dose 3 mg/kg; conditions: in vivo
[5] = Terminal half life in C57BL/6 mouse at 1 mg/kg, iv; type: ADME, organism-based; conditions: in vivo, read-out: beta t1/2 (converted)
[6] = Metabolic stability in human liver microsomes; type: ADME, Microsome
[7] = Clearance in C57BL/6 mouse at 1 mg/kg, iv; type: ADME, organism-based; conditions: in vivo
[8] = Oral bioavailability in C57BL/6 mouse at 3 mg/kg; type: ADME, organism-based; conditions: in vivo
[9] = Tmax in C57BL/6 mouse at 3 mg/kg, po; type: ADME, organism-based; conditions: in vivo
[10] = Terminal half life in C57BL/6 mouse at 3 mg/kg, po; type: ADME, organism-based; conditions: in vivo, read-out: beta t1/2 (converted)
[11] = Initial plasma concentration in C57BL/6 mouse at 1 mg/kg, iv; type: ADME, organism-based
[12] = target: Cytochrome P450 2C9 (Homo sapiens, UniProt P11712); test: Inhibition of CYP2C9 (unknown origin); type: ADME
[13] = Metabolic stability in dog liver microsomes; type: ADME, Canis lupus familiaris, Microsome
[14] = Cmax in C57BL/6 mouse at 3 mg/kg, po; type: ADME, organism-based; set-up: route oral, dose 3 mg/kg; conditions: in vivo
[15] = AUC (0 to t) in C57BL/6 mouse at 1 mg/kg, iv; type: ADME, organism-based; set-up: dose 1 mg/kg; conditions: in vivo
[16] = target: T3, Cytochrome P450 2C8 (Homo sapiens, UniProt P10632); test: Inhibition of CYP2C8 (unknown origin); type: ADME
T3 sequence (P10632 whole entry): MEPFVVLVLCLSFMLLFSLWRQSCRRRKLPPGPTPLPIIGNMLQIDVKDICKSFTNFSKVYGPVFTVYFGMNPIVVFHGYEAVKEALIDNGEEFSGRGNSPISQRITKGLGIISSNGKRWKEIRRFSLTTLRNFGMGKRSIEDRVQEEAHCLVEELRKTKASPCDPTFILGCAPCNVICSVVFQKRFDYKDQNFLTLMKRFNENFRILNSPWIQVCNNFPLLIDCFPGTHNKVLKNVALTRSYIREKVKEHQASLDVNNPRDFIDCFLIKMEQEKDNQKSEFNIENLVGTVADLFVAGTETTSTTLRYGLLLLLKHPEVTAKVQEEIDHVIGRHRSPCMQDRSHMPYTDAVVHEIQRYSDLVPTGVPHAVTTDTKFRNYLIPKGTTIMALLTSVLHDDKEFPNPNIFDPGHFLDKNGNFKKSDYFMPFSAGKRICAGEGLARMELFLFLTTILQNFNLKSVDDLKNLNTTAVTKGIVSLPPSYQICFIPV

[17] = Metabolic stability in mouse liver microsomes; type: ADME, Microsome
[18] = MRT in C57BL/6 mouse at 1 mg/kg, iv; type: ADME, organism-based; conditions: in vivo
[19] = Aqueous solubility of the compound; type: physicochemical; conditions: buffer
[20] = Volume of distribution at steady state in C57BL/6 mouse at 1 mg/kg, iv; type: ADME, organism-based; conditions: in vivo, read-out: Vdss
[21] = Metabolic stability in rat liver microsomes; type: ADME, Microsome
[22] = MRT in C57BL/6 mouse at 3 mg/kg, po; type: ADME, organism-based; conditions: in vivo
[23] = Permeability in human Caco2 cells; type: ADME, cell-based; conditions: caco-2

T1 sequence (Q96P20 whole entry, the tested form may be a part): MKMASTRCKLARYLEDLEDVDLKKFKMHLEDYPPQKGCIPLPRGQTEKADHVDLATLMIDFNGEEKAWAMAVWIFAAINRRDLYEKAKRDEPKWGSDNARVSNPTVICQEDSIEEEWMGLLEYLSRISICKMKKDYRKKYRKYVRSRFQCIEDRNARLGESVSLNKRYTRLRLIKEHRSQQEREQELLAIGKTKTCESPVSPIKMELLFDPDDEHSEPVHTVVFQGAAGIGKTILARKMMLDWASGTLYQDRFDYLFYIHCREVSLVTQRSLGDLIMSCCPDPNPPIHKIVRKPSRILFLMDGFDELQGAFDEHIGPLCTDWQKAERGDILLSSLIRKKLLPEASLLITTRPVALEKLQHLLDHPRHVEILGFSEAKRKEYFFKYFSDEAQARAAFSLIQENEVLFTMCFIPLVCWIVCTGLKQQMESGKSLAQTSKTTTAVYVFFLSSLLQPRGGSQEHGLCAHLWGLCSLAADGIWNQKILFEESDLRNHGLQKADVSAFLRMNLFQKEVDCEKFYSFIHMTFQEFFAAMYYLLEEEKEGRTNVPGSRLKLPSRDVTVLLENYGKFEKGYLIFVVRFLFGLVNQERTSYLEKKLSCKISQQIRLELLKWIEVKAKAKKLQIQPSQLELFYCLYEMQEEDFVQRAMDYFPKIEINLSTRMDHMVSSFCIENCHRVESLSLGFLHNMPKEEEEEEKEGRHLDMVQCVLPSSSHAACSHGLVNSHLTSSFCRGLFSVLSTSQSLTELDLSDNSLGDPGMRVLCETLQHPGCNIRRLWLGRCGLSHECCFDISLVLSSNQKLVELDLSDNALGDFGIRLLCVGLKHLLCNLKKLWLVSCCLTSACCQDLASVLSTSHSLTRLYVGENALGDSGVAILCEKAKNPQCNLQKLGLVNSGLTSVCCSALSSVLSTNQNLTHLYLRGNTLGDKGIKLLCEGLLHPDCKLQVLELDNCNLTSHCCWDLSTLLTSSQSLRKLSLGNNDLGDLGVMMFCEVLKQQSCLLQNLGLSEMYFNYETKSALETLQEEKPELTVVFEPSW
Sequence of Cytochrome P450 2C9 (P11712 whole entry): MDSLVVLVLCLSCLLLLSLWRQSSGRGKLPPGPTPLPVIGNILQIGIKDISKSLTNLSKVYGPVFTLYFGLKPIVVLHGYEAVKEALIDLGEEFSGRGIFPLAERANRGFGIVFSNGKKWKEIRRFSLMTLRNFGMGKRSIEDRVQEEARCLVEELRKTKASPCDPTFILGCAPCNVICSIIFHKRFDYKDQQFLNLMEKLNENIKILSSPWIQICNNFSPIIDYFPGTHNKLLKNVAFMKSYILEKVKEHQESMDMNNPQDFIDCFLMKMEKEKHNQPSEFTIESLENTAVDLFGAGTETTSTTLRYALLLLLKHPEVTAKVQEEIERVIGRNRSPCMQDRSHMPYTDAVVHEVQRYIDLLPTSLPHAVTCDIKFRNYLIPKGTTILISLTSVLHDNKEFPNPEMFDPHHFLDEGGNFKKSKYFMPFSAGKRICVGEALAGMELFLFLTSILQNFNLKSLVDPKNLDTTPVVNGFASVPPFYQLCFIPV

O=C(Nc1c2c(cc3c1CCC3)CCC2)NS(=O)(=O)/C=C/c1ccccn1
IC50 [1]: 1000 nM

O=C(Nc1c2c(cc3c1OCC3)OCC2)NS(=O)(=O)/C=C/c1nccs1
inhibition [2]: < 50%

Cc1cc(C)c(C)c(NC(=O)NS(=O)(=O)/C=C/c2nccs2)c1C
IC50 [1]: > 1000 nM | inhibition [2]: < 50%

CC(C)c1cccc(C(C)C)c1NC(=O)NS(=O)(=O)/C=C/c1nccs1
IC50 [1]: > 1000 nM | inhibition [2]: < 50%

O=C(Nc1c2c(cc3c1CCC3)CCC2)NS(=O)(=O)/C=C/c1nccs1
inhibition [3]: inactive | AUC(0-t) [4]: 48900 ng·h/mL | half-life [5]: 141 min | Stabilty [6]: Stable | clearance [7]: 1.01 mL/min/kg | F [8]: 99% | Tmax [9]: 15 min | half-life [10]: 172 min | C0 [11]: 6270 ng/mL | inhibition (INH) [12]: Active | Stabilty [13]: Stable | Cmax [14]: 8490 ng/mL | AUC(0-t) [15]: 16500 ng·h/mL | inhibition (INH) [16]: Active | Stabilty [17]: Stable | MRT [18]: 3.23 h | solubility [19]: Soluble | Vd [20]: 0.2 L/kg | Stabilty [21]: Stable | MRT [22]: 4.9 h | permeability [23]: Permeable

CC(C)(O)c1coc(S(=O)(=O)NC(=O)Nc2c3c(cc4c2CCC4)CCC3)c1
AUC(0-t) [4]: 46900 ng·h/mL | half-life [5]: 238 min | clearance [7]: 0.8 mL/min/kg | F [8]: 77% | Tmax [9]: 15 min | half-life [10]: 79.2 min | C0 [11]: 22200 ng/mL | Cmax [14]: 11700 ng/mL | AUC(0-t) [15]: 20700 ng·h/mL | MRT [18]: 3.22 h | Vd [20]: 0.15 L/kg | MRT [22]: 3.07 h

COc1cccc(OC)c1NC(=O)NS(=O)(=O)/C=C/c1nccs1
IC50 [1]: > 1000 nM | inhibition [2]: < 50%

O=C(Nc1c2c(cc3c1CCC3)CCC2)NS(=O)(=O)/C=C/c1nc2ccccc2s1
IC50 [1]: > 1000 nM | inhibition [2]: < 50%

O=C(Nc1c(F)cccc1C(F)(F)F)NS(=O)(=O)/C=C/c1nccs1
IC50 [1]: > 1000 nM | inhibition [2]: < 50%

O=C(Nc1ccccc1C(F)(F)F)NS(=O)(=O)/C=C/c1nccs1
IC50 [1]: > 1000 nM | inhibition [2]: < 50%

O=C(Nc1cc(C(F)(F)F)ccc1C(F)(F)F)NS(=O)(=O)/C=C/c1nccs1
IC50 [1]: > 1000 nM | inhibition [2]: < 50%

Cc1cnc(/C=C/S(=O)(=O)NC(=O)Nc2c3c(cc4c2CCC4)CCC3)s1
IC50 [1]: 1060 nM
